Measured values as given in patent US20220125886A1 (The Board of Trustees of the Leland Stanford Junior …, priority 2019, published 2022).
Entries after “also recorded” stand apart in the source; their conditions may differ.

Assays:
[1] = given for comparison; cited from earlier work
[2] = reported previously, used for the fit; cited from earlier work
[3] = Circular dichroism of protein secondary structure when bound to CB[7]-PEG; format: physicochemical; settings: PBS pH 7.4, with CB[7]-PEG, with or without EDTA
Procedure: After mixing, samples were left to equilibrate for 15 minutes at room temperature. […] circular dichroism spectroscopy was performed at 20° C. with a J-815 CD Spectropolarimeter (Jasco Corporation) over a wavelength range of 185-250 nm using a 0.1 cm pathlength cell.

[4] = In vitro stability: aggregation under stressed conditions by change in transmittance at 540 nm; format: physicochemical
Procedure: These aggregates are large and scatter light, allowing the degree of aggregation to be evaluated by measuring the change in transmittance over time. […] Data shown in FIGS. 2A-2E are the average transmittance trace for n=3 samples per group.
The plate was immediately placed into an plate reader and incubated with continuous shaking 37° C. Absorbance readings were taken every 10 minutes at 540 nm for 100 h (BioTek SynergyH1 microplate reader).
Controls included: (i) NOVOLOG®, (ii) zinc-free NOVOLOG®, (iii) pramlintide (sodium acetate buffer at pH=4), (iv) pramlintide (PBS at pH=7), (v) NOVOLOG®+pramlintide (PBS at pH=7.4).

[5] = Diffusion-ordered NMR spectroscopy (DOSY) of protein/CB[7]-PEG complexes; format: physicochemical; settings: for diffusion rate D: DOSY, protein 6 mg mL^−1, 200 mM phosphate buffer pH 7, D2O, zinc removed with EDTA; for hydrodynamic radius (Rh): approximated from D by the Stokes-Einstein relationship
From the text: A Varian Inova 600 MHz NMR instrument was used to acquire the data. Magnetic field strengths ranging from 2 to 57 G cm^−1. The DOSY time and gradient pulse were set at 132 ms (Δ) and 3 ms (δ) respectively. All NMR data were processed using MestReNova 11.0.4 software.

[6] = according to Webber et al., agitation; cited from earlier work

Compound	effect of CB[7]-PEG binding on protein (secondary) structure [3]	diffusion rate D [5]	hydrodynamic radius (Rh) [5] [nm]	also measured
insulin hexamer: hexameric association state of insulin in standard zinc formulations	–	–	–	hydrodynamic radius [1]: approximately 2.8 nm
CN(C)c1ccc2cc3ccc(N(C)C)cc3nc2c1 [AO, Acridine Orange]	–	–	–	CB[7]⋅AO equilibrium constant (Keq) [2]: 200000 M⁻¹
CC[C@H](C)[C@H](NC(=O)[C@@H]1CCCN1C(=O)CNC(=O)[C@H](Cc1ccccc1)NC(=O)[C@H](CC(N)=O)NC(=O)[C@H](CC(N)=O)NC(=O)[C@H](CO)NC(=O)[C@H](CO)NC(=O)[C@H](Cc1c[nH]cn1)NC(=O)[C@@H](NC(=O)[C@H](CC(C)C)NC(=O)[C@H](Cc1ccccc1)NC(=O)[C@H](CC(N)=O)NC(=O)[C@H](C)NC(=O)[C@H](CC(C)C)NC(=O)[C@H](CCCNC(=N)N)NC(=O)[C@H](CCC(N)=O)NC(=O)[C@@H](NC(=O)[C@H](C)NC(=O)[C@@H]1CSSC[C@H](NC(=O)[C@@H](N)CCCCN)C(=O)N[C@@H](CC(N)=O)C(=O)N[C@@H]([C@@H](C)O)C(=O)N[C@@H](C)C(=O)N[C@@H]([C@@H](C)O)C(=O)N1)[C@@H](C)O)C(C)C)C(=O)N[C@@H](CC(C)C)C(=O)N1CCC[C@H]1C(=O)N1CCC[C@H]1C(=O)N[C@H](C(=O)N[C@@H](CC(N)=O)C(=O)N[C@H](C(=O)NCC(=O)N[C@@H](CO)C(=O)N[C@@H](CC(N)=O)C(=O)N[C@H](C(=O)N[C@@H](Cc1ccc(O)cc1)C(N)=O)[C@@H](C)O)C(C)C)[C@@H](C)O [pramlintide]	did not affect protein structure; also recorded: no difference in protein secondary structure was observed	~2×10^−10 m^2 s^−1	1.2	time stable ([4]; pH=4 sodium acetate buffer): over 100 hours; time to aggregation / time stable ([4]; pH=7.4 in PBS, aggregation measured as ~5% change in transmittance at 540 nm): 15 ± 4 h; ratio of diffusion rates, pramlintide alone to insulin in a standard formulation ([5]; standard formulation): ~2.3
insulin aspart	did not affect protein structure; also recorded: did not alter the secondary structure	~1.2×10^−10 m^2 s^−1	~2.2	–
native insulin: recombinant human insulin of Webber et al.	–	–	–	aggregation time (tA), 10% reduction in transmittance [6]: 13.6 ± 0.2 h
